Laboratory results as given in patent US4696925A, “Cholecystokinin antagonist compounds” (Merck & Co., Inc., priority 1985, dated 1987).
pIC50: −log10 of the molar value.

molecular target: T1, Pancreatic CCK (Rattus norvegicus, UniProt P30551); assay: Pancreatic CCK inhibition (assay of European Patent Application No. 0,116,150); type: binding; conditions: pancreas CCK inhibition, European Patent Application assay; leucine analogs
T1 construct: from tissue; host or cells: pancreas (rat, inferred from the cited method)
T1 sequence (P30551 1-444): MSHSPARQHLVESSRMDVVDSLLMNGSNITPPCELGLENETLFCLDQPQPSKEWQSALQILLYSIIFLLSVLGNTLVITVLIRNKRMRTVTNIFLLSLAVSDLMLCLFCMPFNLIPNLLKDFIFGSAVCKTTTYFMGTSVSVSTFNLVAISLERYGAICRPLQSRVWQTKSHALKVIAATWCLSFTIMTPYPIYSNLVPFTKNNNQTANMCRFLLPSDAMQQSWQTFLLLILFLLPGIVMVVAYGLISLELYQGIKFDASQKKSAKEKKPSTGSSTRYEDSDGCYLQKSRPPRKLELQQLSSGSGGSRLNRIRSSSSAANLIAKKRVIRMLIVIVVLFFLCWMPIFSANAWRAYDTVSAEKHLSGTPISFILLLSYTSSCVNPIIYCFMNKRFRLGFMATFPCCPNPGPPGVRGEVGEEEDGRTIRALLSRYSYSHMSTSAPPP
Description: The following formula and tabulation further identify the above listed compounds. Pancreatic CCK inhibition data is also provided; the assay used is that disclosed in said European Patent Application No. 0,116,150.
The following table contains information Identifying other compounds of the present invention and pancrease CCK inhibition data (European Patent Application Assay).

Row | pIC50 | SMILES
1 | 6.22 | O=C1NC(CC2(O)c3ccccc3N3C(=O)C(C4CCCCC4)NC32)c2nc3ccccc3c(=O)n2-c2ccccc21 (stereo not drawn) [Compound 068]
2 | 4.92 | CCCC1NC2N(C1=O)c1ccccc1C2(O)CC1NC(=O)c2ccccc2-n2c1nc1ccccc1c2=O (stereo not drawn) [Compound 539]
3 | 5.12 | C=CCC1NC2N(C1=O)c1ccccc1C2(O)CC1NC(=O)c2ccccc2-n2c1nc1ccccc1c2=O (stereo not drawn) [Compound 540]
4 | 5.23 | CCC(C)C1NC2N(C1=O)c1ccccc1C2(O)CC1NC(=O)c2ccccc2-n2c1nc1ccccc1c2=O (stereo not drawn) [Compound 654]
5 | 5.66 | O=C1NC(CC2(O)c3ccccc3N3C(=O)C(C4CCCC4)NC32)c2nc3ccccc3c(=O)n2-c2ccccc21 (stereo not drawn) [Compound 931]

Second part, the compound before the results:

Row | SMILES | pIC50
6 | CC(CC1NC2N(C1=O)c1ccccc1C2(O)CC1NC(=O)c2ccccc2-n2c1nc1ccccc1c2=O)C(F)(F)F (stereo not drawn) [Compound 328] | 6.00
7 | O=C1NC(CC2(O)c3ccccc3N3C(=O)C(c4ccccc4)NC32)c2nc3ccccc3c(=O)n2-c2ccccc21 (stereo not drawn) [Compound 500] | 4.70
8 | C=C(C)CC1NC2N(C1=O)c1ccccc1C2(O)CC1NC(=O)c2ccccc2-n2c1nc1ccccc1c2=O (stereo not drawn) [Compound 538] | 5.48
9 | CSCCC1NC2N(C1=O)c1ccccc1C2(O)CC1NC(=O)c2ccccc2-n2c1nc1ccccc1c2=O (stereo not drawn) [Compound 655] | 5.39
10 | CCCCC1NC2N(C1=O)c1ccccc1C2(O)CC1NC(=O)c2ccccc2-n2c1nc1ccccc1c2=O (stereo not drawn) [Compound 656] | 5.60
11 | CCSCCC1NC2N(C1=O)c1ccccc1C2(O)CC1NC(=O)c2ccccc2-n2c1nc1ccccc1c2=O (stereo not drawn) [Compound 721] | 5.82

same assay, conditions: pancreatic CCK inhibition, assay of EP 0,116,150

Row | SMILES | pIC50
12 | O=C1NC(Cc2c[nH]c3ncccc23)c2nc3ccccc3c(=O)n2-c2ccccc21 (stereo not drawn) [Compound 841] | 4.52
13 | CC(C)C[C@@H]1NC2N(C1=O)c1ccccc1C2(O)C[C@@H]1NC(=O)c2ccc(F)cc2-n2c1nc1ccccc1c2=O (stereo partly drawn) [Compound 845] | 5.84
14 | O=C1c2ccccc2-n2c(nc3ccccc3c2=O)C2CC3(O)c4cc(F)ccc4NC3N12 (stereo not drawn) [Compound 856] | 4.52
15 | O=C1c2cc(F)ccc2-n2c(nc3ccc(F)cc3c2=O)C2CC3(O)c4cc(F)ccc4NC3N12 (stereo not drawn) [Compound 857] | 5.60
